“Also recorded” adds a separate entry of the source.
Assays:
[1] = tested on: T cells; assay: BioMAP proliferation readout, T cells; format: cell-based, human; conditions: 100 μM, 33 μM
From the text: The X-axis lists the quantitative protein-based biomarker readouts measured in each system. The Y-axis represents a log-transformed ratio of the biomarker readouts for the drug-treated sample (n=1) over vehicle controls (n≥6). The grey region around the Y-axis represents the 95% significance envelope generated from historical vehicle controls. Biomarker activities are annotated when two or more consecutive concentrations change in the same direction relative to vehicle controls, are outside of the significance envelope, and have at least one concentration with an effect size >20% (|log 10 ratio|>0.1). Biomarker key activities are described as modulated if these activities increase in some systems, but decrease in others. […] As summarized in Table 2 below, the compound was active with 35 annotated readouts. […]
Human primary cells in BioMAP® systems are used at early passage (passage 4 or earlier) to minimize adaptation to cell culture conditions and preserve physiological signaling responses. […] Test agents prepared in either DMSO (small molecules; final concentration ≤0.1%) or PBS (biologics) are added at the indicated concentrations 1-hr before stimulation, and remain in culture for 24-hrs or as otherwise indicated (48-hrs, MyoF system; 72-hrs, BT system (soluble readouts); 168-hrs, BT system (secreted IgG)). […]

[2] = tested on: NCI-H1299 NSCLC cell line; assay: BioMAP Oncology NSCLC panel (StroNSCLC and VascNSCLC systems); format: cell-based, human
From the text: The BioMAP® oncology system used in this Example is a coculture of primary human immune cells with primary tissue cells in the presence of the NSCL cells. In particular, The BioMAP® Oncology NSCLC panel models the interactions between the immune-stromal (fibroblasts) and immune-vascular (endothelial cells) environments in the context of non-small lung cancer (NCI-H1299 NSCLC cell line). The interactions between tumor cells, stimulated immune cells (peripheral blood mononuclear cells [PBMC]), and the host stromal network (human neonatal dermal fibroblasts [HDFn]) are captured in the StroNSCLC system. In parallel, the VascNSCLC system captures the interactions between tumor cells, activated immune cells and the vascular tissue (human umbilical vein endothelial cells [HUVEC]). The biomarkers selected for the BioMAP® Non-small Cell Lung Cancer (NSCLC) panel inform on activities related to inflammation, immune-function, tissue remodeling and metastasis in the context of a host tumor-microenvironment.
A signature BioMAP® profile that is reflective of the changes in protein biomarker readouts within an individual system is generated for each test agent. Biomarker readouts selected for therapeutic and biological relevance are predictive for disease outcomes or specific drug effects, and have been validated using agents with known clinical efficacy. Each readout is measured quantitatively by immune-based receptors, cytokines, chemokines, matrix molecules and enzymes. In total, the 42 biomarker readouts in the NSCLC panel capture the biological changes that occur within the physiological context of each particular BioMAP® system.
The BioMAP® Non-small Cell Lung Cancer (NSCLC) panel allows a focused in vitro evaluation of the impact of an agent in a model system that includes the hierarchical signaling networks that exist between interacting pathways and cells in a disease relevant setting. To represent the changes that are occurring in these complex systems, biomarker readouts with the ability to integrate and distinguish changes in different regulatory networks have been selected.
Data analysis of the results was performed as described in detail above in Example 3.1. Briefly, biomarker activities are annotated when at least one concentration of the test agent is outside of the significance envelope with an effect size >20% compared to the vehicle control (|log 10 ratio|>0.1) and a p-value <0.01. Cytotoxic conditions are noted when total protein levels decrease by more than 50% (log 10 ratio of SRB <−0.3). Biomarker key activities are described as modulated if these activities increase in some systems, but decrease in others.

[3] = 7.4 μM, 22 μM, 67 μM, Angiogenesis related activities
[4] = 7.4 μM, 22 μM, 67 μM, Immune-related activities
[5] = 7.4 μM, 22 μM, 67 μM, Inflammation related activities
[6] = 7.4 μM, 22 μM, 67 μM, Matrix remodeling activities

With `C1=NC(c2cncc(C3CCC=N3)c2)CC1` (centres unmarked) [3,5-bis(3,4-dihydro-2H-pyrrol-2-yl)pyridine] the “antiproliferative effect on T cells” value [1] was “antiproliferative”, the “Decreased activity: uPA” value [2, 3] was “decreased and uPA” and the “Increased activity: tPA” value [2, 3] was “increased and tPA”. The “Decreased Activity: sIL-6” value [2, 4] was “decreased”, the “Decreased activity: sGranB” value [2, 4] was “decreased; also recorded: sGranB” and the “Decreased activity: sIFNγ” value [2, 4] was “decreased; also recorded: SIFNG”. For the same compound, the “Decreased activity: sIL-2” value [2, 4] was “decreased”, the “Decreased activity: sIL-4” value [2, 4] was “decreased; also recorded: SIL-4” and the “Decreased activity: sIL-10” value [2, 4] was “decreased”. The “Decreased activity: sIL-13” value [2, 4] was “decreased”, the “Decreased activity: sIL-17A” value [2, 4] was “decreased; also recorded: SIL-17A” and the “Decreased Activity: sTNFα” value [2, 5] was “decreased; also recorded: STNFa”. The “Decreased activity: VCAM-1” value [2, 5] was “decreased; also recorded: VCAM-1”, the “Decreased activity: sMDC” value [2, 5] was “decreased” and the “Increased activity: IP-10” value [2, 5] was “increased; also recorded: IP-10”. The “Increased activity: Collagen III” value [2, 6] was “increased; also recorded: Col-III”, the “Increased activity: EGFR” value [2, 6] was “increased and EGFR” and the “Increased activity: HGF” value [2, 6] was “increased and HGF”. For the same compound, the annotated readouts ([2]; BioMAP Oncology NSCLC Panel) was 21, the annotated activities ([2]; StroNSCLC system) was 16 and the annotated activities ([2]; VascNSCLC system) was “five”. For the same compound, the cytotoxicity ([2]; at 200 μM) was “cytotoxic” and the “cytotoxicity in the VascNSCLC system” value ([2]; at 200 μM, VascNSCLC system) was “detectable cytotoxicity”.

Reference: patent US12358892B2, “Metalloenzyme inhibitors for treating cancers, Alzheimer's disease, hemochromatosis, and other disorders” (Miralogx LLC, priority 2020, dated 2025)
